According to patent US20150299218A1, “Heterocyclic Compounds As Inhibitors Of The Sodium Iodide Symporter” (COMMISSARIAT A L'ENERGIE ATOMIQUE ET AUX ENERGIES …, priority 2012, published 2015):

system: not given; test: not given; conditions: concentration up to 200 μM; cited from earlier work

Row | Compound | cytotoxicity
1 | Brc1cccc(C2NCCc3c2[nH]c2ccccc32)c1 (stereo not shown) [Compound 1] | not cytotoxic
2 | O=[N+]([O-])c1cccc(C2NCCc3c2[nH]c2ccccc32)c1 (stereo not shown) [Compound 2] | not cytotoxic

biological target: T1, sodium iodide symporter (NIS) (Rattus norvegicus, UniProt Q63008); test: not given; conditions: rat thyroid-derived cells (FRTL5); F. Waltz et al. 2010; read-out: IC50 competitive inhibition of iodide transport in FRTL5; cited from earlier work
T1 construct: The biological activity of each compound was determined in FRTL5 cells, using a 24-well plate format radioiodide uptake assay; endogenous in cells; host or cells: FRTL5 (rat thyroid-derived cells)
T1 sequence (Q63008 1-618): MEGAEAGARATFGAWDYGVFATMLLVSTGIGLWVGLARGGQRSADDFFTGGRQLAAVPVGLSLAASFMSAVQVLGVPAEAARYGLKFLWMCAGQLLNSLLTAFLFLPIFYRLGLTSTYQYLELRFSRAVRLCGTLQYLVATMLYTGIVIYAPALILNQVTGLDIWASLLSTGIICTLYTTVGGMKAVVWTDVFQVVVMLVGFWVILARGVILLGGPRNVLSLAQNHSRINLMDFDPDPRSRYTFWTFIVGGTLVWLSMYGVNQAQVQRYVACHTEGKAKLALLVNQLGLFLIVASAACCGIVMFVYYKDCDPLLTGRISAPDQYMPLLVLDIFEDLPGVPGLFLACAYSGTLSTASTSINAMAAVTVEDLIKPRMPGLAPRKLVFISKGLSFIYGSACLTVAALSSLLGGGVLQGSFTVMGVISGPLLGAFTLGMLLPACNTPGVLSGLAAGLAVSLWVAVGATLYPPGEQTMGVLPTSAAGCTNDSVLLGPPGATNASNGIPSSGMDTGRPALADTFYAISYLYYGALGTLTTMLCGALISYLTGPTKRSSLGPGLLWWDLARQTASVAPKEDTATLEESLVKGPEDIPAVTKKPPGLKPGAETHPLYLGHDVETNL

Row | Compound | IC50
3 | [O-][Cl+3]([O-])([O-])O [ClO4^−] | 0.14 µM
4 | F[B-](F)(F)F [BF4^−] | 0.75 µM
5 | F[P-](F)(F)(F)(F)F [PF6^−] | 0.009 µM
6 | O=[N+]([O-])O [NO3^−] | 250 µM

biological target: T1, sodium iodide symporter (NIS); test: radioiodide uptake assay in FRTL5 cells (24-well plate); assay type: cell-based; conditions: 60 min, NaI 10 μM, averaged from two to four independent experiments, read-out: IC50 against iodide uptake in FRTL5 cells
Description: In the framework of the invention, the NIS inhibitor is evaluated as follow: rat thyroid-derived cells (FRTL5 cells expressing NIS) are incubated during 1 h with iode and 125-I as a tracer, and in the presence of various concentration of compound. For each tested concentration of compound, the amount of iodide inside the cells is quantified by radioactive counting. The half-maximum inhibitory concentration (IC50) is evaluated for each compound by regression analysis (to the Hill equation) from dose-response data. A detailed protocol is provided in the experimental section, and also in N. Lecat-Guillet et al., ChemMedChem, 2008.
The synthesized compounds were evaluated for their ability to inhibit iodide entrapment in FRTL5 cells using a rodiodide uptake assay. The IC50 values were measured in at least two independent experiments.
The biological activity of each compound was determined in FRTL5 cells, using a 24-well plate format radioiodide uptake assay. Each experiment was run in quadruplicate and at least twice independently. Compound potency was expressed as IC50, the concentration of compound necessary to achieve 50% inhibition of iodide uptake. NaClO4 and the Compound 2 were tested as assay controls.
FRTL5 cells were cultured in Coon's modified F12 medium supplemented with 5% heat-inactivated fetal bovine serum (Invitrogen), 2 mM L-glutamine, 100 U/mL penicillin, 0.1 mg/mL streptomycin, 10 μg/mL insulin, 10 nM hydrocortisone, 10 ng/mL Gly-His-Lys acetate, 1 mU/mL TSH, 5 μg/mL transferrin at 37° C. and 5% CO2. For iodide uptake assays, 1.25 mL of FRTL5 cells with density of 250,000 cells/mL were dispensed in each well of clear flat-bottomed 24-well polystyrene microplates (BD Falcon 3047), and further cultured until confluence reached 70-90% (3-4 days).
Prepare ˜1.5 mL/plate of an intermediate “10-fold” radioiodide uptake buffer solution: NaI (100 μM) and [125-I]-NaI (20 μCi/mL) in uptake buffer (HBSS/Hepes).
For each concentration of compound tested, prepare ˜2.5 mL of compound solutions in uptake buffer (HBSS/Hepes 10 mM) at 1.12 fold the final concentration, so that 450 μL of this solution plus 50 μL of radioiodide uptake buffer makes the desired final concentration (NaI 10 μM final, 1 μCi/well).
The procedure is performed at 20±2° C. in a well ventilated hood. Culture medium of FRTL5 cells is removed by aspiration. Compound solutions are added to the 24-well plate in quadruplicate (450 μL/well) immediately followed by [125I]-NaI radioiodide uptake buffer (50 μL/well, 10 μM final, 1 μCi/well). The 24-well plate is left to stand for 60 min. Radioactive supernatants are removed by aspiration and the cell are washed twice with 500 μL of cold uptake buffer (HBSS/Hepes at 4° C.). Finally, the residual supernatant is removed by aspiration and 500 μL of lysis buffer (SDS 0.1%, triton 0.5%) is added to each well. The 24-well plate is gently agitated for 60-120 min. The radioactive cell lysates are collected and placed into scintillation vials. Scintillation cocktail (Ultima gold LLT, Perkin Elmer) is added to each vial (4 mL) and the radioactivity is measured (Wallac 1409). For IC50 determination, mean DPM values were fitted by non-linear regression (least square) to the four-parameter sigmoidal Hill equation.
IC50 values are averaged from two to four independent experiments. A standard deviation of 2-fold was judged acceptable. NaClO4 and Compound 2 were tested as assay controls.

Row | IC50 | Compound
7 | 0.17 µM | Fc1ccc(F)c(C2OCCc3c2[nH]c2ccccc32)c1 (stereo not shown) [Compound 7, 1-(2,5-difluorophenyl)-1,3,4,9-tetrahydropyrano[3,4-b]indole]
8 | 0.2 µM | Fc1ccc(C2OCCc3c2[nH]c2ccccc32)cc1Cl (stereo not shown) [Compound 12, 1-(3-chloro-4-fluorophenyl)-1,3,4,9-tetrahydropyrano[3,4-b]indole]
9 | 0.00041 µM | c1cc2c(c(C3OCCc4c3[nH]c3ccccc43)c1)OCO2 (stereo not shown) [Compound 8, 1-(benzo[d][1,3]dioxol-4-yl)-1,3,4,9-tetrahydropyrano[3,4-b]indole]
10 | 0.17 µM | Brc1cccc(C2OCCc3c2[nH]c2ccccc32)c1 (stereo not shown) [Compound 11, 1-(3-bromophenyl)-1,3,4,9-tetrahydropyrano[3,4-b]indole]
11 | 0.0053 µM | O=[N+]([O-])c1cccc(C2OCCc3c2[nH]c2ccccc32)c1 (stereo not shown) [Compound 4, 1-(3-nitrophenyl)-1,3,4,9-tetrahydropyrano[3,4-b]indole]
12 | 0.14 µM | Clc1cccc(C2OCCc3c2[nH]c2ccccc32)c1 (stereo not shown) [Compound 9, 1-(3-chlorophenyl)-1,3,4,9-tetrahydropyrano[3,4-b]indole]
13 | 0.0011 µM | Nc1cccc(C2OCCc3c2[nH]c2ccccc32)c1 (stereo not shown) [Compound 13, 1-(3-aminophenyl)-1,3,4,9-tetrahydropyrano[3,4-b]indole]
14 | 0.057 µM | COc1ccc(F)c(C2OCCc3c2[nH]c2ccccc32)c1 (stereo not shown) [Compound 10, 1-(2-fluoro-5-methoxyphenyl)-1,3,4,9-tetrahydropyrano[3,4-b]indole]

The next lines start with the compound.

Row | Compound | IC50
15 | O=[N+]([O-])c1cccc(C2SCCc3c2[nH]c2ccccc32)c1 (stereo not shown) [Compound 6, 1-(3-nitrophenyl)-1,3,4,9-tetrahydrathiopyrano[3,4-b]indole] | 0.14 µM
16 | O=[N+]([O-])c1cccc(C2NCCc3c2oc2ccccc32)c1 (stereo not shown) [Compound 5, 1-(3-nitrophenyl)-1,2,3,4-tetrahydro[1]benzofuro[2,3-c]pyridine] | 0.2 µM
